Results reported in ChEMBL document CHEMBL1201862, “PubChem BioAssay data set” (2004).
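Briefly, cells in 96-well plates were exposed to five compound concentrations for 48 h, and endpoints were estimated by linear interpolation. Here, GI50 denotes the concentration required for 50% inhibition of growth.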 Active and inactive are the calls of the source. No stated cut-off is given here; in the data, active = GI50 up to about 1.1 µM and inactive = higher.

Tests used:
Experiment in all cases: DTP human tumour cell line panel, 48 h
EKVX = system: EKVX
SN12C = system: SN12C
SK-OV-3 = system: SK-OV-3
SNB-19 = system: SNB-19
IGROV-1 = system: IGROV-1
HT-29 = system: HT-29
SF-268 = system: SF-268
ACHN = system: ACHN
UACC-62 = system: UACC-62
SK-MEL-5 = system: SK-MEL-5
HOP-92 = system: HOP-92
MDA-MB-231 = system: MDA-MB-231
SNB-75 = system: SNB-75
U-251 = system: U-251
NCI-H460 = system: NCI-H460
MCF7 = system: MCF7
UACC-257 = system: UACC-257
A498 = system: A498
UO-31 = system: UO-31
HCC 2998 = system: HCC 2998

SMILES	GI50 (EKVX)	GI50 (SN12C)	GI50 (SK-OV-3)	GI50 (SNB-19)	GI50 (IGROV-1)	GI50 (HT-29)	GI50 (SF-268)	GI50 (ACHN)	GI50 (UACC-62)	GI50 (SK-MEL-5)	GI50 (HOP-92)	GI50 (MDA-MB-231)	GI50 (SNB-75)	GI50 (U-251)	GI50 (NCI-H460)	GI50 (MCF7)	GI50 (UACC-257)	GI50 (A498)	GI50 (UO-31)	GI50 (HCC 2998)
O=C(O)c1nc2nc(Cl)c(Cl)nc2[nH]1	> 100 µM (inactive)	> 100 µM (inactive)	> 100 µM (inactive)	> 100 µM (inactive)	> 100 µM (inactive)	> 100 µM (inactive)	> 100 µM (inactive)	> 100 µM (inactive)	> 100 µM (inactive)	> 100 µM (inactive)	> 100 µM (inactive)	> 100 µM (inactive)	> 100 µM (inactive)	> 100 µM (inactive)	> 100 µM (inactive)	> 100 µM (inactive)	> 100 µM (inactive)	> 100 µM (inactive)		
O=C1CCC(Cc2ccc(Cl)cc2Cl)C(=O)N1 (stereo not drawn)	65 µM (inactive)	> 100 µM (inactive)	> 100 µM (inactive)	> 100 µM (inactive)	> 100 µM (inactive)	> 100 µM (inactive)	82.4 µM (inactive)	> 100 µM (inactive)	> 100 µM (inactive)	> 100 µM (inactive)	> 100 µM (inactive)	51.8 µM (inactive)	64.6 µM (inactive)	> 100 µM (inactive)	> 100 µM (inactive)	> 100 µM (inactive)	> 100 µM (inactive)		83.6 µM (inactive)	
COc1cc2c(c(OC)c1OC)C(=O)[C@H](O)[C@H]2NC(N)=O	99.5 µM (inactive)	> 100 µM (inactive)		> 100 µM (inactive)	49.5 µM (inactive)	> 100 µM (inactive)	> 100 µM (inactive)	34.1 µM (inactive)	17.6 µM (inactive)	40.7 µM (inactive)		86.3 µM (inactive)	23.3 µM (inactive)	44.2 µM (inactive)	66.8 µM (inactive)	> 100 µM (inactive)	85.5 µM (inactive)		> 100 µM (inactive)	> 100 µM (inactive)
Cc1sc(NC=C2C(=O)CC(C)(C)CC2=O)nc1-c1ccccc1	> 100 µM (inactive)	> 100 µM (inactive)	> 100 µM (inactive)	> 100 µM (inactive)	> 100 µM (inactive)	> 100 µM (inactive)	> 100 µM (inactive)	> 100 µM (inactive)	> 100 µM (inactive)	> 100 µM (inactive)	> 100 µM (inactive)	> 100 µM (inactive)	> 100 µM (inactive)	> 100 µM (inactive)	> 100 µM (inactive)	> 100 µM (inactive)	> 100 µM (inactive)		> 100 µM (inactive)	> 100 µM (inactive)
CNC(=S)/C(=N\Nc1[nH]cnc1C(N)=O)C(N)=S	22.3 µM (inactive)	2.44 µM (inactive)	1.51 µM (inactive)	45.3 µM (inactive)	3.56 µM (inactive)	16.1 µM (inactive)	3.18 µM (inactive)	5.32 µM (inactive)	3.22 µM (inactive)	11.5 µM (inactive)	3 µM (inactive)	2.12 µM (inactive)	6.82 µM (inactive)	30.3 µM (inactive)	5.31 µM (inactive)	16.5 µM (inactive)	9.62 µM (inactive)		1.61 µM (inactive)	1.99 µM (inactive)
Cc1cc(=O)oc2c(CNC(Cc3ccccc3)C(=O)O)c(O)ccc12 (stereo not drawn)	> 100 µM (inactive)	> 100 µM (inactive)	> 100 µM (inactive)	> 100 µM (inactive)	> 100 µM (inactive)	> 100 µM (inactive)	> 100 µM (inactive)	> 100 µM (inactive)	> 100 µM (inactive)	> 100 µM (inactive)	> 100 µM (inactive)	> 100 µM (inactive)	82.2 µM (inactive)	> 100 µM (inactive)	> 100 µM (inactive)	> 100 µM (inactive)	> 100 µM (inactive)		73.3 µM (inactive)	> 100 µM (inactive)
Cc1nc2cccc([N+](=O)[O-])c2c(NCCCN(C)C)c1C	> 31.6 µM (inactive)	11.5 µM (inactive)	> 100 µM (inactive)	> 100 µM (inactive)	> 100 µM (inactive)	19.9 µM (inactive)	> 77.3 µM (inactive)	97.3 µM (inactive)	> 100 µM (inactive)	35.6 µM (inactive)	> 100 µM (inactive)		49.7 µM (inactive)	> 79.8 µM (inactive)	24 µM (inactive)	23 µM (inactive)	23 µM (inactive)	34.8 µM (inactive)	> 100 µM (inactive)	21.8 µM (inactive)
O=C1OCCC[C@H]2O[C@@H](COCc3ccccc3)C[C@@H]12		> 100 µM (inactive)	> 100 µM (inactive)	> 100 µM (inactive)		> 100 µM (inactive)	> 100 µM (inactive)	> 100 µM (inactive)	> 100 µM (inactive)	> 100 µM (inactive)	> 100 µM (inactive)	> 100 µM (inactive)	> 100 µM (inactive)	> 100 µM (inactive)	> 100 µM (inactive)	> 100 µM (inactive)	> 100 µM (inactive)	> 100 µM (inactive)	> 100 µM (inactive)	
CCCCOC(=O)NC(Nc1cccc(C(F)(F)F)c1)(C(F)(F)F)C(F)(F)F	51.5 µM (inactive)	68.7 µM (inactive)		> 100 µM (inactive)	49.5 µM (inactive)	50.8 µM (inactive)	60 µM (inactive)	47.4 µM (inactive)	58.5 µM (inactive)	49.9 µM (inactive)	23.9 µM (inactive)	> 100 µM (inactive)	33.6 µM (inactive)	36.1 µM (inactive)	32.7 µM (inactive)	59.4 µM (inactive)	84.9 µM (inactive)	> 100 µM (inactive)	46.5 µM (inactive)	
C=C(Br)C[N+]12CN3CN(CN(C3)C1)C2	> 100 µM (inactive)	> 100 µM (inactive)	> 100 µM (inactive)	> 100 µM (inactive)	> 100 µM (inactive)	> 100 µM (inactive)	> 100 µM (inactive)	> 100 µM (inactive)	> 100 µM (inactive)	> 100 µM (inactive)	> 100 µM (inactive)	> 100 µM (inactive)	> 100 µM (inactive)	> 100 µM (inactive)	> 100 µM (inactive)		> 100 µM (inactive)	> 100 µM (inactive)	> 100 µM (inactive)	> 100 µM (inactive)
NCCC(N)C(=O)O (stereo not drawn)	> 100 µM (inactive)	> 100 µM (inactive)	> 100 µM (inactive)	> 100 µM (inactive)	> 100 µM (inactive)	> 100 µM (inactive)	> 100 µM (inactive)	> 100 µM (inactive)	> 100 µM (inactive)	> 100 µM (inactive)	> 100 µM (inactive)	> 100 µM (inactive)		> 100 µM (inactive)	> 100 µM (inactive)	> 100 µM (inactive)	> 100 µM (inactive)	> 100 µM (inactive)	> 100 µM (inactive)	
O=C(OC1CN2CCC1CC2)N(c1ccccc1)c1ccccc1 (stereo not drawn)	> 100 µM (inactive)	> 100 µM (inactive)	> 100 µM (inactive)	> 100 µM (inactive)	> 100 µM (inactive)	44.9 µM (inactive)	> 100 µM (inactive)	> 100 µM (inactive)	65 µM (inactive)	29.4 µM (inactive)	34.7 µM (inactive)	54 µM (inactive)	46.2 µM (inactive)	> 100 µM (inactive)		74.8 µM (inactive)	62.5 µM (inactive)	24.7 µM (inactive)	86.9 µM (inactive)	
CCOC(=O)C(=Cc1ccccc1Cl)C(=O)OCC	3.03 µM (inactive)	1.6 µM (inactive)	5.26 µM (inactive)	1.84 µM (inactive)	3.49 µM (inactive)	1.43 µM (inactive)	2.19 µM (inactive)	2.61 µM (inactive)	1.69 µM (inactive)	2.06 µM (inactive)	2.88 µM (inactive)	1.83 µM (inactive)	0.0174 µM (active)	1.63 µM (inactive)	3.21 µM (inactive)		1.82 µM (inactive)	2.92 µM (inactive)	1.71 µM (inactive)	> 10 µM (inactive)
CC(C)=Nn1cnc(C(=N)C#N)c1N	> 100 µM (inactive)		> 100 µM (inactive)	> 100 µM (inactive)	> 100 µM (inactive)	> 100 µM (inactive)	> 100 µM (inactive)	> 100 µM (inactive)	> 100 µM (inactive)	> 10 µM (inactive)			37.1 µM (inactive)	> 100 µM (inactive)	> 100 µM (inactive)	> 100 µM (inactive)	> 100 µM (inactive)		> 100 µM (inactive)	> 100 µM (inactive)
CCOC(=O)NC(Nc1ccc(S(=O)(=O)Nc2ncccn2)cc1)(C(=O)OCC)C(F)(F)F (stereo not drawn)	> 100 µM (inactive)	> 100 µM (inactive)	> 100 µM (inactive)	> 100 µM (inactive)	> 100 µM (inactive)	> 100 µM (inactive)	> 100 µM (inactive)	> 100 µM (inactive)	> 100 µM (inactive)	> 100 µM (inactive)	> 100 µM (inactive)	> 100 µM (inactive)	> 100 µM (inactive)	> 100 µM (inactive)	> 100 µM (inactive)	0.279 µM (active)	> 100 µM (inactive)		> 100 µM (inactive)	> 100 µM (inactive)
